Assay [1] deals with barnacle cyprids. In words: Cyprid settlement on plastic and glass substrata (IMD, ZPX). Format: in vivo, Balanus amphitrite. The procedure:
Assays were then carried out on plastic and glass substrata. […] The wells were then rinsed with clean water, and cyprids added in clean seawater.
A follow up experiment was carried out to examine the effect of ZPX on barnacle settlement when the experiment is carried out on different substrata. ZPX test solutions were prepared as described above from the tablet. The following test conditions were applied: • (1) Assay was carried out with ZPX test solutions in the 24 well tissue culture plates (as before); • (2) ZPX test solution at 25 ug ml^−1 were applied to the 24 well tissue culture plates and left in the well for 10 minutes. The solution is then discarded and the well was rinsed three times, each time with 2 ml of seawater. Clean seawater was added into each well. • (3) The assay with ZPX test solutions was carried out in glass scintillation bottles.
Cyprids were obtained and settlement experiments were carried out as described earlier. After 24 hours, the number of cyprids which had settled/attached was counted.

Assay [2] has as its system bacterial biofilms (strains 9, 14, 20, 27 and 28). Nature of the assay: Effect of ZPX and ZFN on adhesion and removal of biofilms. Format: cell-based, marine bacteria isolated from Singapore fouling communities. The note with it: NTC; for Effect on established bacterial biofilms: 25 ug ml^−1; for Biofilm present after treatment (added with bacteria or after biofilm established): 50 ug ml^−1. The procedure:
The bacteria were grown, washed and their concentrations were adjusted as described above. The bacterial suspension (75 μl) of strains 9, 14, 20, 27 and 28 in SSW and 50 μl of SDI water were placed into 96 well polystyrene microplates (Falcon 351172). Blank wells were filled with 75 μl of SSW and 50 μl of SDI. Three wells were used for blanks, each control and treatment.
The cells were allowed to attach to the wells for 2 h. Afterwards, unattached bacteria and liquid in the wells were removed by aspiration and wells were washed with 200 μl of SSW twice using a microplate washer as described above. After washing, 75 μl of SSW were added and 50 μl of SDI to the control (bacterial suspension and SDI as above) and blank (75 μl of SSW and 50 μl of SDI) wells.
After 2 h, the wells were washed with SSW, washed twice with SDI and stained with crystal violet as described above. After 10 min, the stain was removed, wells were washed twice with SDI, and crystal violet was released from the attached bacteria by adding 200 μl of sodium desoxycholate. After 10 min, absorbance (A590) of each well was read using a plate reader (Tecan Sunrise, Switzerland). Comparisons were made between wells where attached bacteria were exposed to SDI and wells where they were exposed to the pharmaceuticals.

In assay [3] the test system is marine bacteria (ten strains). In words: Bacteriostatic vs bacteriocidal activity from growth assay: absorbance and CFU counts. The note with it: 50 μg ml^−1; for Growth assay: 24-hour change in absorbance for ten strains: strains 1, 4, 9, 14, 18, 20, 27, 28, 29, 30. Format: cell-based, marine bacteria isolated from Singapore fouling communities. The procedure:
Bacteria strains (1, 4, 9, 14, 18, 20, 27, 28, 29, 30) representing a variety of morphological types were used.
For each well, […] of a 100 μg ml^−1 drug solution in sterile distilled water, was added to 45 μl of Marine Broth. Controls for growth consisted of 50 μl of sterile deionized water and 45 μl of marine broth. All wells used for growth studies were prepared in triplicate and inoculated with 5 μl of the bacterial suspension. Blanks consisting of the above volumes of pharmaceutical with Marine Broth and distilled water, were prepared in triplicate and inoculated with 5 μl of sterile seawater. Immediately after adding all the components to the wells for the growth studies, 10 μl was removed and used to inoculate plates of Marine Agar to determine colony-forming units (CFU). The absorbance (A600) of each well was read in the plate reader immediately.
The inoculated plates of Marine Agar were incubated overnight on a rotary shaker (150 rpm) at 30° C. inside a moistened airtight container. After incubation, the absorbance was read again and another 10 μl was removed and used to inoculate Marine Agar plates to determine CFU.
The difference in absorbance over 24 hours for each bacterial strain versus controls and treatments were plotted in FIGS. 3 to 6 for each of the four drugs. The data was analyzed using 1-tailed t-test.

The structures appear in SMILES notation. “Also recorded” adds a separate entry of the source. Where a name gives a salt, the structure may show the parent alone.

Consider `CN(C)C(=O)C(CCN1CCC(O)(c2ccc(Cl)cc2)CC1)(c1ccccc1)c1ccccc1` [IMD, Loperamide hydrochloride], for which the “Effect of IMD on settlement of cyprids: drug form, solvent, substratum” value in assay [1] (tablet vs pure compound, DMSO vs DI stock, glass vs plastic, treated and rinsed wells, hydrochloride) was “no difference in activity between the solutions prepared from tablet and the pure compound; also recorded: no difference between the DMSO and DI prepared stock solutions; also recorded: no difference between glass and plastic; also recorded: no significant IMD residue present on the surfaces”.
`Cc1cc2c(s1)Nc1ccccc1N=C2N1CCN(C)CC1` [ZPX, olanzapine]: in assay [1] (24 well tissue culture plates, rinsed ZPX-treated wells (25 ug ml^−1, 10 minutes), glass bottles, 24 hours), the “Effect of ZPX on cyprid settlement on different substrata” value is “no significant difference in settlement between plastic and glass; also recorded: After rinsing, the effect of ZPX in plastic was removed; also recorded: prevents the settlement of barnacle cyprids”. Further, in assay [2], the “Effect on established bacterial biofilms” value is reported as “no significant effect” and the “Biofilm present after treatment (added with bacteria or after biofilm established)” value is “Except for strain 28, little or no biofilm was present after treatment”.
Consider `CN1CCN(CCCN2c3ccccc3Sc3ccc(C(F)(F)F)cc32)CC1` [TFZ, Trifluoperazine hydrochloride], for which the “Killing of bacteria (decrease in absorbance and CFU counts)” value in assay [3] was “strain 14 was not killed”. Besides, the “Growth assay: 24-hour change in absorbance for ten strains” value in assay [3] is “only strain numbers 1 and 14 grew in the presence of TFZ”. Further, the “Change in CFU count after 24 hours” value in assay [3] (strain 1 (Rhodovulum)) and in assay [3] (strain 14 (Vibrio)) was 0 in each case. The “Inhibition of bacterial growth” value in assay [3] (strain 1 (Rhodovulum)) is on record as 0; in assay [3] (strain 4 (Bacillus)), “+++ (+++ denotes little or no growth, p < 0.001)”; in assay [3] (strain 9 (Bacillus)), “+++ (+++ denotes little or no growth, p < 0.001)”; in assay [3] (strain 14 (Vibrio)), 0; in assay [3] (strain 18 (Microbacterium)) it was “+++ (+++ denotes little or no growth, p < 0.001)”; in assay [3] (strain 20), “+++ (+++ denotes little or no growth, p < 0.001)”. Besides, the “Inhibition of bacterial growth” value in assay [3] (strain 27) was “+++ (+++ denotes little or no growth, p < 0.001)”; in assay [3] (strain 28), “+++ (+++ denotes little or no growth, p < 0.001)”; in assay [3] (strain 29) it was “+++ (+++ denotes little or no growth, p < 0.001)”; in assay [3] (strain 30) it was “+++ (+++ denotes little or no growth, p < 0.001)”. For the same compound, the “Result (bacteriostatic / bacteriocidal / no effect)” value is listed as “no effect” in assay [3] (strain 1 (Rhodovulum)); “bacteriocidal” in assay [3] (strain 4 (Bacillus)); “bacteriocidal” in assay [3] (strain 9 (Bacillus)); “no effect” in assay [3] (strain 14 (Vibrio)); “bacteriostatic” in assay [3] (strain 18 (Microbacterium)); “bacteriostatic” in assay [3] (strain 20). The “Result (bacteriostatic / bacteriocidal / no effect)” value in assay [3] (strain 27) was “bacteriocidal”; in assay [3] (strain 28), “bacteriostatic”; in assay [3] (strain 29) it was “bacteriocidal”; in assay [3] (strain 30) it was “bacteriostatic”.
For `CNCCC(Oc1ccc(C(F)(F)F)cc1)c1ccccc1` (stereo not shown) [PZC, fluoxetine hydrochloride], the “Change in CFU count after 24 hours” value in assay [3] (strain 1 (Rhodovulum)) and in assay [3] (strain 14 (Vibrio)) was 0 in each case. Moreover, the “Inhibition of bacterial growth” value in assay [3] (strain 1 (Rhodovulum)) is 0; in assay [3] (strain 4 (Bacillus)), “+++ (+++ denotes little or no growth, p < 0.001)”; in assay [3] (strain 9 (Bacillus)) it was “+++ (+++ denotes little or no growth, p < 0.001)”; in assay [3] (strain 14 (Vibrio)) it was 0; in assay [3] (strain 18 (Microbacterium)), “+++ (+++ denotes little or no growth, p < 0.001)”; in assay [3] (strain 20), “+++ (+++ denotes little or no growth, p < 0.001)”. Moreover, the “Inhibition of bacterial growth” value in assay [3] (strain 27) was “+++ (+++ denotes little or no growth, p < 0.001)”; in assay [3] (strain 28) it was “+++ (+++ denotes little or no growth, p < 0.001)”; in assay [3] (strain 29), “+++ (+++ denotes little or no growth, p < 0.001)”; in assay [3] (strain 30), “+++ (+++ denotes little or no growth, p < 0.001)”. Also, the “Result (bacteriostatic / bacteriocidal / no effect)” value was “no effect” in assay [3] (strain 1 (Rhodovulum)); “bacteriostatic” in assay [3] (strain 4 (Bacillus)); “bacteriostatic” in assay [3] (strain 9 (Bacillus)); “no effect” in assay [3] (strain 14 (Vibrio)); “bacteriostatic” in assay [3] (strain 18 (Microbacterium)); “bacteriostatic” in assay [3] (strain 20). Further, the “Result (bacteriostatic / bacteriocidal / no effect)” value is “bacteriocidal” in assay [3] (strain 27), “bacteriostatic” in assay [3] (strain 28), “bacteriostatic” in assay [3] (strain 29) and “bacteriostatic” in assay [3] (strain 30).
In the case of `Cc1nccn1CC1CCc2c(c3ccccc3n2C)C1=O` (stereo not shown) [ZFN, ondansetron hydrochloride], in assay [2], the “Effect on established bacterial biofilms” value is “no significant effect” and the “Biofilm present after treatment (added with bacteria or after biofilm established)” value is “Except for strain 28, little or no biofilm was present after treatment”.
On to `CN1CCN(CCCN2c3ccccc3Sc3ccc(Cl)cc32)CC1` [PCZ, prochlorperazine maleate], for which the “Killing of bacteria (decrease in absorbance and CFU counts)” value in assay [3] is listed as “strain 14 was not killed”. In addition, in assay [3], the “Growth assay: 24-hour change in absorbance for ten strains” value is “only strain numbers 1 and 14 grew in the presence of PCZ”. In addition, the “Change in CFU count after 24 hours” value in assay [3] (strain 1 (Rhodovulum)) and in assay [3] (strain 14 (Vibrio)) was 0 throughout. Moreover, the “Inhibition of bacterial growth” value in assay [3] (strain 1 (Rhodovulum)) was 0; in assay [3] (strain 4 (Bacillus)), “+++ (+++ denotes little or no growth, p < 0.001)”; in assay [3] (strain 9 (Bacillus)), “+++ (+++ denotes little or no growth, p < 0.001)”; in assay [3] (strain 14 (Vibrio)) it was 0; in assay [3] (strain 18 (Microbacterium)), “+++ (+++ denotes little or no growth, p < 0.001)”; in assay [3] (strain 20), “+++ (+++ denotes little or no growth, p < 0.001)”. Besides, the “Inhibition of bacterial growth” value is listed as “+++ (+++ denotes little or no growth, p < 0.001)” in assay [3] (strain 27); “+++ (+++ denotes little or no growth, p < 0.001)” in assay [3] (strain 28); “+++ (+++ denotes little or no growth, p < 0.001)” in assay [3] (strain 29); “+++ (+++ denotes little or no growth, p < 0.001)” in assay [3] (strain 30). Moreover, the “Result (bacteriostatic / bacteriocidal / no effect)” value in assay [3] (strain 1 (Rhodovulum)) is reported as “no effect”; in assay [3] (strain 4 (Bacillus)), “bacteriocidal”; in assay [3] (strain 9 (Bacillus)), “bacteriocidal”; in assay [3] (strain 14 (Vibrio)), “no effect”; in assay [3] (strain 18 (Microbacterium)), “bacteriostatic”; in assay [3] (strain 20) it was “bacteriostatic”. Also, the “Result (bacteriostatic / bacteriocidal / no effect)” value in assay [3] (strain 27) is reported as “bacteriocidal”; in assay [3] (strain 28), “bacteriostatic”; in assay [3] (strain 29) it was “bacteriocidal”; in assay [3] (strain 30), “bacteriostatic”.

(Values after patent US20060110456A1, “Method for biocidal and/or biostatic treatment and compositions therefor” (NATIONAL UNIVERSITY OF SINGAPORE, priority 2004, published 2006).)
